Source: patent US4902799A, “Bicyclic alkoxy- and alkylthio-substituted aminoalcohols” (Maggioni-Winthrop S.p.A., priority 1985, dated 1990)
Like-named read-outs stand apart in the source and are kept apart here.

Legend:
Normolipemic rats [1] = conditions: "as known"; cited from earlier work
Normolipemic rats [2] = assay: Hypolipemic activity in normolipemic rats; format: in vivo, rat (Sprague Dawley Nos male rats); conditions: for CHOL-HDL (in words) / serum TG (in words): oral
male mice [3] = assay: Anti-hypoxic activity (gasping time after decapitation); format: in vivo; conditions: Mus musculus, po, read-out: Gasping time, % diff. from control
in vivo = conditions: mouse, po
platelet aggregation = assay: Collagen-induced platelet aggregation ex vivo; format: in vivo, rat; conditions: 0.15 mM/kg oral, blood 1 hr after treatment, collagen 2-4 mcg/ml
male mice [4] = conditions: mouse, in vivo, po
toxic adrenaline doses = assay: animal or person; format: in vivo, mouse (male mice CrI:CD 1(CR) BR); conditions: Mus musculus, po, 24 h, read-out: PD50 (50% protective dose)
[5] = 100 mg/kg/p.o., pretreatment 90 min

| Compound | LD50 (in vivo) | CHOL, % different from control (Normolipemic rats [2]; 0.37 mM/kg/p.o. × 4 days) | CHOL-HDL, % different from control (Normolipemic rats [2]; 0.37 mM/kg/p.o. × 4 days) | Liver Weight, % different from control (Normolipemic rats [2]; 0.37 mM/kg/p.o. × 4 days) | TG, % different from control (Normolipemic rats [2]; 0.37 mM/kg/p.o. × 4 days) | CHOL-HDL (in words) (Normolipemic rats [2]) | serum TG (in words) (Normolipemic rats [2]) | CHOL, % different from control (Normolipemic rats [2]; 0.185 mM/kg/p.o. × 4 days) | CHOL-HDL, % different from control (Normolipemic rats [2]; 0.185 mM/kg/p.o. × 4 days) | Liver Weight, % different from control (Normolipemic rats [2]; 0.185 mM/kg/p.o. × 4 days) | TG, % different from control (Normolipemic rats [2]; 0.185 mM/kg/p.o. × 4 days) | % Inhibition, Aggregation rate (platelet aggregation) | % Inhibition, Maximum aggregation (platelet aggregation) | further results |
| --- | --- | --- | --- | --- | --- | --- | --- | --- | --- | --- | --- | --- | --- | --- |
| CCOC(=O)C(C)(C)Oc1ccc(Cl)cc1 [Clofibrate, reference compound] |  |  |  |  |  |  |  |  |  |  |  |  |  | liver increase (in words) (Normolipemic rats [1]): significative liver increase; CHOL, % different from control (Normolipemic rats [2]; 0.82 mM/kg/p.o. × 4 days): -15.0%; CHOL-HDL, % different from control (Normolipemic rats [2]; 0.82 mM/kg/p.o. × 4 days): 0%; Liver Weight, % different from control (Normolipemic rats [2]; 0.82 mM/kg/p.o. × 4 days): +19.5%; TG, % different from control (Normolipemic rats [2]; 0.82 mM/kg/p.o. × 4 days): -40.0% |
| Fc1ccc(C(c2ccc(F)cc2)N2CCN(C/C=C/c3ccccc3)CC2)cc1 [Flunarizine, reference compound] |  |  |  |  |  |  |  |  |  |  |  |  |  | change in vivo at 50 mg/kg (male mice [3]; 50 mg/kg/p.o., pretreatment 90 min): 68.7% |
| CSc1ccc2cc(C(O)C(C)N3CCN(C(=O)c4ccco4)CC3)ccc2c1 (centres unmarked) [MG 28451, 2-[4-(2-Furoyl)-1-piperazinyl]-1-(6-methylthio-2-naphthyl)-propanol] | > 1000 mg/kg | -13.5% | +46.5% | +9.2% | -48.2% | increase of CHOL-HDL | significative decrease of serum TG |  |  |  |  |  |  |  |
| CSc1ccc2cc(C(O)C(C)N3CCN(C(=O)c4cccnc4)CC3)ccc2c1 (centres unmarked) [MG 28453, 2-[4-(3-Pyridinylcarbonyl)-1-piperazinyl]-1-(6-methylthio-2-naphthyl)-propanol] |  | -26.9% | +31.7% | +21.6% | -75.4% | increase of CHOL-HDL | significative decrease of serum TG | +8.5% | +45.2% | +2.8% | -36.4% |  |  |  |
| COc1ccc2cc(C(O)C(C)N3CCN(C(=O)C=Cc4cc(OC)c(OC)c(OC)c4)CC3)ccc2c1 (centres unmarked) [MG 28472, 2-[4-(1-Oxo-3-(3,4,5-trimethoxyphenyl)-2-propenyl)-1-piperazinyl]-1-(6-methoxy-2-naphthyl)-propanol] |  |  |  |  |  |  |  |  |  |  |  | 65.3% | 75.7% |  |
| COc1ccc2cc(C(O)C(C)N3CCN(c4ccccc4)CC3)ccc2c1 (centres unmarked) [MG 38068, 2-(4-Phenyl-1-piperazinyl)-1-(6-methoxy-2-naphthyl)-propanol] | > 1000 mg/kg | -21.8% | +32.9% | +0.3% | -56.9% | increase of CHOL-HDL | significative decrease of serum TG | -3.7% | +5.0% | +2.6% | -45.0% | 54.4% | 58.8% |  |
| COc1ccc2cc(C(O)C(C)N3CCN(C(=O)C=Cc4ccccc4)CC3)ccc2c1 (centres unmarked) [MG 38071, 2-[4-(1-Oxo-3-phenyl-2-propenyl)-1-piperazinyl]-1-(6-methoxy-2-naphthyl)-propanol] |  |  |  |  |  |  |  |  |  |  |  |  |  | change in vivo at 100 mg/kg (male mice [3]; [5]): 32.7% |
| CCCCCCCCNC(C)C(O)c1ccc2cc(OC)ccc2c1 (centres unmarked) [MG 38077] |  |  |  |  |  |  |  |  |  |  |  |  |  | change in vivo at 100 mg/kg (male mice [3]; [5]): 71% |
| COc1ccc2cc(C(O)C(C)N3CCN(C(=O)c4ccco4)CC3)ccc2c1 (centres unmarked) [MG 38078, 2-[4-(2-Furoyl)-1-piperazinyl]-1-(6-methoxy-2-naphthyl)-propanol] | > 2000 mg/kg |  |  |  |  |  |  |  |  |  |  | 64.0% | 70.4% |  |
| COc1ccc2cc(C(O)C(C)N3CCN(c4ccccc4)CC3)ccc2c1 (centres unmarked) [MG 38088, 2-(4-Phenyl-1-piperazinyl)-1-(6-methoxy-2-naphthyl)-propanol] |  | -41.3% | +5.4% | +3.4% | -68.5% |  |  | -35.1% | -9.1% | 0% | -70.5% | 75.1% | 68.6% | change in vivo at 100 mg/kg (male mice [3]): 46.8%; LD50 (male mice [4]): higher than 1000 mg/kg; ED50 (toxic adrenaline doses): 13.5 mg/kg |
